We go through nine compounds from patent US20190015397A1, “SUBSTANCE THAT INHIBITS P2Y12 RECEPTOR, FOR USE IN THE PREVENTIVE TREATMENT OF SYSTEMIC SCLEROSIS IN PATIENTS WITH RAYNAUD'S PHENOMENON AND A DYSIMMUNITY” (UNIVERSITÉ DE BORDEAUX, priority 2016, published 2019).

Series [1] deals with P2Y12 receptor (Homo sapiens, UniProt Q9H244). Particulars: cited from earlier work.
For series [2], the system named is healthy endothelial cells. Put plainly: TSLP production by healthy endothelial cells with platelets treated with acetylsalicylic acid. Format: cell-based, human. The following applies: doses 0, 10 and 1000 pg/ml. The text has this:
FIG. 8: represents the in vitro TSLP production (pg/ml) by healthy endothelial cells in the presence of platelets from a first healthy non sclerodermic patient a second non sclerodermic patient previously treated with acetylsalicylic acid (aspirin, pg/ml) at a dose of 0, 10 and 1000 pg/ml.
The endothelial TSLP production is not inhibited by healthy patients platelets treated with acetylsalicylic acid (aspirin active metabolite) (see FIG. 8).

The subject of series [3] is human normal microvascular endothelial cells. Description: TSLP secretion by endothelial cells co-incubated with platelets from patients treated by P2Y12 inhibitors. The class given is cell-based. Particulars: clopidogrel 75 mg or ticagrelor 90 mg per day; platelets:EC 200:1, 24 hrs, ELISA. As for the experimental part:
FIG. 7: represents TSLP secretion (in pg/ml: A, or in %: B) by endothelial cells after stimulation by, from left to right, platelets from healthy donors (HD, n=6), patients treated by clopidogrel (n=3) or by ticagrelor (n=4). […] Supernatants were harvested and frozen before analysis. TSLP concentration was determined by ELISA.
Briefly, platelets purified from healthy normal subject, or non-sclerodermic patients treated with clopidogrel (75 mg par jour), or a non-sclerodermic patient treated with ticagrelor (90 mg par jour), for preventing atherothrombotic events, were co-incubated with human normal microvascular endothelial cells at a 200:1 ratio for 24 hrs. Cell culture supernatant was collected and TSLP content was measured using a dedicated commercial ELISA kit.
(In general: In an ELISA, binding on a coated surface is turned into a signal by an enzyme label.)

Series [4] concerns bleomycin-injected mice.
Series [5] concerns mice models of scleroderma. The following applies: two mice models of scleroderma; cited from earlier work.
For series [6], the system named is patients with SSc. The following applies: cited from earlier work.
Series [7] has as its system human dermal microvascular endothelial cells (HDMEC). Put plainly: TSLP production by human dermal microvascular EC stimulated with cytokines/reagents (ELISA, RTqPCR). The class given is cell-based. On the procedure:
FIG. 4: IL1β-stimulated human dermal microvascular endothelial cells (HDMEC) produce TSLP. Normal HDMEC were purified from normal skin (plastic surgery) and stimulated 24 hrs with (A) cytokines potentially involved in SSc and the TLR4 agonist LPS or (B) increasing amount of IL1β (from 10 to 50 ng/ml) in complete MV-2 medium (M). Supernatants were harvested and TSLP content was measured by dedicated ELISA from eBioscience. Mean and SD from 3 (A) and 6 (B) independent experiments. (C) Quantification of TSLP mRNA from IL1β (50 ng/mL) activated HDMEC using RTqPCR, one representative experiment out of 3. *P<0.05 and ***P=0.0004 using Kruskal Wallis test.
(§1) (A) 70000 HDMEC were cultured for 24 hrs in 24-well culture plate in MV-2 complete medium along with increasing amount of purified non-activated platelets (white bars) or adenosine diphosphate-activated platelets (black bars) (from 10 to 200 platelets for 1 HDMEC). […] (B) HDMEC were stimulated with ADP-activated platelets with or without anti-IL1β blocking antibody. Condition “platelet-” is a comparison without platelets. […] (C) HDMEC were stimulated with increasing doses of serotonin (from 0 to 90 ng/ml). A Wilcoxon test was used. (*p=0.013). (D) HDMEC were stimulated with ADP-activated platelets (ratio HDMEC:platelets=1:200) with or without blocking anti-IL1β with or without 5HT-receptors (5HTR2a and 5HTR2b) blocking antibodies. […] Supernatants were harvested and TSLP content was measured using dedicated ELISA. Results are mean and SEM from 3 independent experiments.
(§2) TSLP levels in cell culture supernatants or serum was quantified using an ELISA kit from eBiosciences following the manufacturer's instruction.
(§3) Human dermal microvascular EC were cultured in complete MV2 growth medium in a 96 well-plates with flat bottom (20000 cells per well in 200 μl) and allowed to stand overnight before adding different reagents (IL-1β, IL-4, IL-13, TNF-α, IFN-γ, LPS, 5HT or Tryptase) or platelets ADP-activated or not for 24 h at 37° C. […]

Series [8] has as its system human dermal fibroblasts. Put plainly: Pro-fibrotic mRNA profile of activated human dermal fibroblasts (RT-qPCR). The following applies: for MMP-1 mRNA expression / collagen1A1 mRNA / collagen/collagenase ratio (COL1A1 on MMP-1 mRNA): HD dermal fibroblasts; for MMP-1 mRNA expression / collagen1A1 mRNA / collagen/collagenase ratio (COL1A1 on MMP-1 mRNA) / MCP-1 mRNA expression: 48 h; for MCP-1 mRNA expression: human dermal fibroblasts. Format: cell-based. On the procedure:
Human dermal fibroblasts were isolated from healthy skin and incubated 48 h with DMEM, IL1β, recombinant TSLP or TGFβ1. (A) Quantification of Col1A1 mRNA from activated fibroblasts using RT-qPCR from 3 different healthy donors was expressed in ΔΔCT with DMEM as the baseline condition. (B) Quantification of MMP-1 mRNA from activated fibroblasts using RTqPCR, results of 3 different healthy donors. (C) Ratio of COL1A1 on MMP-1 (collagenase) mRNA from activated normal fibroblasts using RT-qPCR, results of 3 different healthy donors (left panel) and 3 SSc patients (right panel). Among SSc patients, two patients were dcSSc and fibroblasts came from TSLP+ fibrotic skin (patients #1 and 2), the other was a IcSS and fibroblasts came from TSLP-low fibrotic skin (patient #3). (D) Quantification of MCP-1 from activated normal fibroblasts using RT-qPCR, results of 3 different donors. Kruskal Wallis test was used to compare the mean of mRNA expression levels. *P<0.05.
Fibroblasts were obtained from […] skin biopsy samples from 3 healthy donors as described elsewhere (Truchetet M E, Brembilla N C, Montanari E, et al. Interleukin-17A+ cell counts are increased in systemic sclerosis skin and their number is inversely correlated with the extent of skin involvement. Arthritis Rheum 2013; 65:1347-1356 ([24])).
Total RNA was isolated from trypsinized fibroblasts with the NucleoSpin RNA II extraction system (Macherey-Nagel, Duren, Germany) and cDNA synthesized from […] of total RNA using random hexamers and Superscript III reverse transcriptase (Invitrogen, Carlsbad, Calif.) according to manufacturer's instructions. Gene expression was quantified using SYBR green performed on a SDS 7900 HT instrument (Applied Biosystems). Specific primer pairs for each gene described in supplementary material (Datta A, Alexander R, Sulikowski M G, et al. Evidence for a functional thymic stromal lymphopoietin signaling axis in fibrotic lung disease. J Immunol 2013; 191:4867-4879 ([25]); Brembilla N C, Montanari E, Truchetet M E, et al. Th17 cells favor inflammatory responses while inhibiting type I collagen deposition by dermal fibroblasts: differential effects in healthy and systemic sclerosis fibroblasts. Arthritis Res Ther 2013; 15:R151 ([26]); Yoda A, Yoda Y, Chiaretti S, et al. Functional screening identifies CRLF2 in precursor B-cell acute lymphoblastic leukemia. Proc Natl Acad Sci USA 2010; 107:252-257 ([27]); Le Q T, Gomez G, Zhao W, et al. Processing of human protryptase in mast cells involves cathepsins L, B, and C. J Immunol 2011; 187:1912-1918 ([28])). Each reaction was performed in triplicates. […] Oligonucleotides were obtained from Sigma-Aldrich. Differences were calculated with the threshold cycle (Ct) and the comparative Ct method for relative quantification.
In general terms: In qPCR the cycle at which signal appears reflects the starting amount.

The test system of series [9] is human dermal microvascular endothelial cells (HDMEC). Description: Platelet-induced TSLP production in platelet/EC co-culture with blocking antibodies. The class given is cell-based. The following applies: ADP-activated platelets. On the procedure:
as §1, §2, §3

Entries after “also recorded” stand apart in the source; their conditions may differ.

Chain of P2Y12 receptor (Q9H244 whole entry): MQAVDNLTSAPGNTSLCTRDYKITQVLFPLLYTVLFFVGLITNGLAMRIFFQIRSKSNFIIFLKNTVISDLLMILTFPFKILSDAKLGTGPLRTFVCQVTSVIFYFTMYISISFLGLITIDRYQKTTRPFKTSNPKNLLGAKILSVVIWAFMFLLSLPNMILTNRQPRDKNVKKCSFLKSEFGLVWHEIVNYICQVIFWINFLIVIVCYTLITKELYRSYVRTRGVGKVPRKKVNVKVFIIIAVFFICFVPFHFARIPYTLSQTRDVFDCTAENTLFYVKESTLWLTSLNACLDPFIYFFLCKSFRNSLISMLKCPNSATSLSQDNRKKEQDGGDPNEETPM

`CCCSc1nc(N[C@@H]2C[C@H]2c2ccc(F)c(F)c2)c2nnn([C@@H]3C[C@H](O)[C@@H](O)[C@H]3O)c2n1` [AR-C124910XX]: the “potency of active metabolite relative to ticagrelor” value in series [1] was “approximately equipotent”.
In the case of `CC(=O)Oc1ccccc1C(=O)O` [acetylsalicylic acid], the “endothelial TSLP production with acetylsalicylic acid-treated platelets” value in series [2] is “not inhibited”; in [2] (listed as aspirin) it was “not observed”.
On to `COC(=O)[C@H](c1ccccc1Cl)N1CCc2sccc2C1` [clopidogrel], for which the “TSLP production by endothelial cells induced by platelets of treated patients” value in [3] is listed as “failed to induce TSLP production; also recorded: can block the pro-fibrotic TSLP molecule expression”. Further, the dermal thickness entry in series [4] (clopidogrel 25 mg/kg/d per os from 15 days before bleomycin 30 μg/mice s.c.) is “reduces the dermal thickness”. In series [4] (clopidogrel pre-treatment 25 mg/kg/d per os), the “skin fibrotic effect of Bleomycin” value is on record as “significantly reduces”. For the same compound, the “development of digital ulcers” value in series [4] (preventive treatment of mice before the establishment of fibrosis) is reported as “not associated with development of digital ulcers”. In series [5], the fibrosis entry is listed as “reduces fibrosis”. In series [6], the “markers of endothelial function and new digital ulcers” value is “may worsen markers of endothelial function and associate with development of new digital ulcers”.
Regarding `NCCc1c[nH]c2ccc(O)cc12` [serotonin, reference compound], in series [7] (serotonin at 90 ng/ml, vs 0.75±0.5 pg/ml for EC alone), the “TSLP production by dermal microvascular EC” value is 58.9 ± 11.4 pg/mL.
Consider `CCCSc1nc(N[C@@H]2C[C@H]2c2ccc(F)c(F)c2)c2nnn([C@@H]3C[C@H](OCCO)C(O)C3O)c2n1` (stereo partly drawn) [ticagrelor], for which the “TSLP production by endothelial cells induced by platelets of treated patients” value in series [3] is “failed to induce TSLP production”.
For the compound “IL1β: pro-inflammatory cytokine used as stimulus”, the “TSLP production by dermal microvascular EC (protein)” value in series [7] (IL1β stimulation 24 hrs, vs 7.4±3.5 pg/ml with dermal microvascular EC alone) was found to be 651.7 ± 95.4 pg/mL. For the same compound, the “TSLP expression at the transcriptomic level” value in series [7] (RTqPCR, IL1β 50 ng/mL) is reported as “increase the expression of TSLP”. In series [8], the “MMP-1 mRNA expression” value is 5.7±1.7 fold increase vs medium condition, the “collagen1A1 mRNA” value is reported as 1.7±0.4 fold increase vs medium condition, the “collagen/collagenase ratio (COL1A1 on MMP-1 mRNA)” value is listed as 0.47±0.3 fold increase vs medium condition and the “MCP-1 mRNA expression” value is listed as 52.7±11.2 fold increase vs medium condition.
With “TGFβ: cytokine used as control condition on fibroblasts”, in [8], the “MMP-1 mRNA expression” value is on record as 0.56±0.14 fold increase vs medium condition, the “collagen1A1 mRNA” value is listed as 5.35±0.9 fold increase vs medium condition and the “MCP-1 mRNA expression” value is 0.31±0.09 fold increase vs medium condition.
Take “canakinumab: monoclonal antibody blocking IL-1β”: in series [9] (FIG. 5B, blocking antibody 10 μg/mL, vs 64.8±3.9 pg/ml without antibody), the “platelet-induced TSLP production” value was 20.9 ± 3.7 pg/mL. In series [9] (HDMEC:platelets=1:200, FIG. 5D, vs 649±13.8 pg/ml in platelet/EC), the “TSLP production in platelet/EC co-culture” value was 335.1 ± 28.5 pg/mL.
Take “rTSLP: recombinant Thymic Stromal Lymphopoietin”: in series [8], the “MMP-1 mRNA expression” value is listed as 0.59±0.06 fold increase vs medium condition, the “collagen1A1 mRNA” value was 1.5±0.06 fold increase vs medium condition, the “collagen/collagenase ratio (COL1A1 on MMP-1 mRNA)” value is 2.6±0.3 fold increase vs medium condition and the “MCP-1 mRNA expression” value is reported as 0.48±0.02 fold increase vs medium condition. In addition, the “collagen/collagenase ratio in SSc fibroblasts” value in series [8] (fibroblasts from TSLP+ fibrotic skin of two dcSSc patients, compared to lcSSc patient or normal fibroblasts) is “lower collagen/collagenase ratio”.
